Test results reported in US6069254A, “Carboxamide derivatives of piperidine for the treatment of thrombosis disorders” (Ortho Pharmaceutical Corp., priority 1997, dated 2000).
Structures can show the parent of a compound that is named as a salt. Where two headings read alike, the source gives them in different places.

Tests used:
GPIIb/IIIa [1] = biological target: T1, GPIIb/IIIa (Homo sapiens, UniProt P05106+P08514); assay: In Vitro Solid Phase Purified Glycoprotein IIb/IIIa Binding Assay (fibrinogen binding)
Description: In Vitro Solid Phase Purified Glycoprotein IIB/IIIA Binding Assay
The plate is covered and incubated overnight at 4° C. The GPIIb/IIIa solution is discarded and 150 μl of 5% BSA is added and incubated at RT for 1-3 h. The plate is washed extensively with modified Tyrodes buffer. Biotinylated fibrinogen (25 μl/well) at 2×final concentration is added to the wells that contain the test compounds (25 μl/well). The plate is covered and incubated at RT for 2-4 h. Twenty minutes prior to incubation completion, one drop of Reagent A (Vecta Stain ABC Horse Radish Peroxidase kit, Vector Laboratories, Inc.) and one drop Reagent B are added with mixing to 5 mL modified Tyrodes buffer mix and let stand. The ligand solution is discarded and the plate washed (5×200 μl/well) with modified Tyrodes buffer. Vecta Stain HRP-Biotin-Avidin reagent (50 μl/well, as prepared above) is added and incubated at RT for 15 min. The Vecta Stain solution is discarded and the wells washed ([…]) with modified Tyrodes buffer. Developing buffer (10 mL of 50 mM citrate/phosphate buffer @ pH 5.3, 6 mg Q-phenylenediamine, 6 μl 30% H2 O2; 50 μl/well) is added and incubated at RT for 3-5 min, and then 2N H2 SO4 (50 μl/well) is added. The absorbance is read at 490 nm.

[2] = system: gel-filtered platelets (thrombin-induced aggregation); assay: In Vitro Inhibition of Thrombin-Induced Gel-Filtered Platelet Aggregation Assay; format: cell-based; conditions: Homo sapiens; for inhibition at 50 µM: read-out: Platelet Aggregation % Inh. (50 μM); for IC50: read-out: Platelet Aggregation IC50
Description: In Vitro Inhibition of Thrombin-Induced Gel-Filtered Platelet Aggregation Assay
The percentage of platelet aggregation is calculated as an increase in light transmission of compound-treated platelet concentrate vs. control-treated platelet concentrate. Human blood is obtained from drug free, normal donors into tubes containing 0.13M sodium citrate. Platelet rich plasma (PRP) is collected by centrifugation of whole blood at 200×g for 10 min at 25° C. The PRP (5 mL) is gel filtered through Sepharose 2B (bed volume 50 mL), and the platelet count is adjusted to 2×10^7 platelets per sample. The following constituents are added to a siliconized cuvette: concentrated platelet filtrate and Tyrode's buffer (0.14M NaCl, 0.0027M KCl, 0.012M NaHCO3,0.76 mM Na2 HPO4, 0.0055M glucose, 2 mg/mL BSA and 5.0 mM HEPES @ pH 7.4) in an amount equal to 350 μl, 50 μl of 20 mM calcium and 50 μl of the test compound. Aggregation is monitored in a BIODATA aggregometer for the 3 min following the addition of agonist (thrombin 50 μl of 1 unit/mL).

[3] = system: collagen or ADP-induced ex vivo platelet aggregation; assay: Ex Vivo Dog Study: ex vivo platelet aggregation; format: in vivo
Description: Adult mongrel dogs (8-13 kg) were anesthetized with sodium pentobarbital ([…], i.v.) and artificially respired. Arterial blood pressure and heart rate were measured using a Millar catheter-tip pressure transducer inserted in a femoral artery Another Millar transducer was placed in the left ventricle (LV) via a carotid artery to measure LV end diastolic pressure and indices of myocardial contractility. A lead electrocardiogram was recorded from limb electrodes. Catheters were placed in a femoral artery and vein to sample blood and infuse drugs, respectively. Responses were continuously monitored using a Modular Instruments data aquisition system.
Separate blood samples (1.5 ml) were withdrawn in EDTA to determine hematocrit and cell counts (platelets, RBC's and white cells). Template bleeding times were obtained from the buccal surface using a symplate incision devise and Whatman filter paper.
Aggregation of PRP was performed using a BioData aggregometer. Aggregation of whole blood used a Chronolog impedance aggregometer. PT and APTT were determined on either a BioData or ACL 3000+ coagulation analyser. Cells were counted with a Sysmex K-1000.
Compounds were solubilized in a small volume of dimethylformamide (DMF) and diluted with saline to a final concentration of 10% DMF. Compounds were administered by the intravenous route with a Harvard infusion pump. […] Data were obtained after each dose and in 30 min intervals following the end of drug administration. Oral doses were administered as aqueous solutions via syringe.

thrombus formation = assay: canine arteriovenous shunt model of thrombosis; format: in vivo; conditions: iv infusion
[4] = system: platelets (thrombin-induced platelet aggregation); conditions: L. Alig, J. Med. Chem. 1992, 35, 4393; read-out: IC50 against in vitro thrombin-induced platelet aggregation; cited from earlier work
GPIIb/IIIa [5] = biological target: T1, GPIIb/IIIa; conditions: background statement; cited from earlier work
[6] = isolated GPIIb/IIIa, biotinylated fibrinogen, read-out: Fibrinogen Binding IC50
[7] = 50 μM, thrombin-induced aggregation of gel-filtered platelets
[8] = thrombin-induced aggregation of gel-filtered platelets

| Compound | IC50 (GPIIb/IIIa [1]; [6]) [nM] | inhibition at 50 µM [2, 7] [%] | further results |
| --- | --- | --- | --- |
| O=C(O)C(O)CNC(=O)[C@@H]1CCCN(C(=O)CCC2CCNCC2)C1 (single isomer, unassigned) [Compound 11, N-3-(4-Piperidinepropionyl)-R-(-)-nipecotyl-(3-amino-2-hydroxy) propionic acid.TFA] | 4 | – | – |
| NCCCCCC(=O)N1CCCC(C(=O)NC(CC(=O)O)c2cccnc2)C1 (stereo not drawn) [Compound 10, N-(6-Aminocaproyl)-nipecotyl-3-amino-3-(3-pyridyl)propionic acid.3TFA] | – | 85 | IC50 [2, 8]: 1600 nM; IC50 (GPIIb/IIIa [1]): 19 nM |
| O=C(O)C[C@H](NC(=O)[C@@H]1CCCN(C(=O)CCC2CCNCC2)C1)c1ccc2c(c1)OCO2 [Compound 16, N-3-(4-Piperidinepropionyl)-R-(-)-nipecotyl-[(S)-3-amino-3-(3,4-methylenedioxyphenyl)]propionic acid.HCl] | 0.5 | – | Duration of >50% inhibition of collagen or ADP induced ex vivo platelet aggregation ([3]; intravenous, 0.1 mpk): 60 min; Duration of >50% inhibition of collagen or ADP induced ex vivo platelet aggregation ([3]; oral, 1 mpk): 60 min; Duration of >50% inhibition of collagen or ADP induced ex vivo platelet aggregation ([3]; oral, 3 mpk): > 180 min; thrombus weight vs. vehicle control (thrombus formation; 10 μg/kg/min cumulative dose): 75%; thrombus weight vs. vehicle control (thrombus formation; 30 μg/kg/min cumulative dose): 37%; thrombus weight vs. vehicle control (thrombus formation; 100 μg/kg/min cumulative dose): 12%; efficacy in canine arteriovenous shunt model of thrombosis (thrombus formation): have shown efficacy in a canine arteriovenous shunt model of thrombosis in a dose-dependent fashion; inhibition at 50 µM [2]: 94%; IC50 [2]: 28 nM; inhibition at 50 µM (GPIIb/IIIa [1]; read-out: Fibrinogen Binding % Inh. (50 μM)): 100% |
| O=C(O)C[C@H](NC(=O)[C@@H]1CCCN(C(=O)CCC2CCNCC2)C1)c1cnc2ccccc2c1 [Compound 18, N-3-(4-Piperidinepropionyl)-R-(-)-nipecotyl-[(S)-3-amino-3-(3-quinolinyl)]propionic acid.2HCl] | 0.2 | 100 | efficacy in canine arteriovenous shunt model of thrombosis (thrombus formation): have shown efficacy in a canine arteriovenous shunt model of thrombosis in a dose-dependent fashion |
| O=C(O)C[C@H](NC(=O)C1CCCN(CCCC2CCNCC2)C1)c1ccc2c(c1)OCO2 (stereo partly drawn) [Compound 20, N-3-(4-Piperidinepropyl)-nipecotyl-[(S)-3-amino-3-(3,4-methylenedioxyphenyl)]propionic acid.2TFA] | 0.7 | – | – |
| O=C(O)C[C@H](NC(=O)[C@@H]1CCCN(C(=O)CCC2CCNCC2)C1)c1cccnc1 [Compound 21, N-3-(4-Piperidinepropionyl)-R-(-)-nipecotyl-[(S)-3-amino-3-(3-pyridyl)]propionic acid.2TFA] | 0.5 | 100 | IC50 [2, 8]: 60 nM |
| COc1cccc(NC(=O)N[C@@H](CNC(=O)[C@@H]2CCCN(C(=O)CCC3CCNCC3)C2)C(=O)O)c1 [Compound 22, N-3-(4-Piperidinepropionyl)-R-(-)nipecotyl-[(S)-2-(3-methoxyanilino)carbonylamino-3-amino]propionic acid] | 0.7 | – | – |
| O=C(N[C@@H](CNC(=O)[C@@H]1CCCN(C(=O)CCC2CCNCC2)C1)C(=O)O)OCc1ccccc1 [Compound 23, N-3-(4-Piperidinepropionyl)-R-(-)nipecotyl-[(S)-2-benzyloxycarbonylamino-3-amino]propionic acid.HCl] | 0.3 | – | – |
| O=C(N[C@@H](CNC(=O)[C@@H]1CCCN(C(=O)CCC2CCNCC2)C1)C(=O)O)OCc1cccc(Cl)c1 [Compound 24, N-3-(4-Piperidinepropionyl)-R-(-)nipecotyl-[(S)-2-(3-chlorobenzyloxy)carbonylamino-3-amino]propionic acid.HCl] | – | 100 | – |
| O=C(NC[C@H](NS(=O)(=O)Cc1ccccc1)C(=O)O)[C@@H]1CCCN(C(=O)CCC2CCNCC2)C1 [Compound 25, N-3-(4-Piperidinepropionyl)-R-(-)nipecotyl-[(S)-2-benzylsulfonylamino-3-amino]propionic acid.HCl] | 0.3 | – | IC50 [2, 8]: 7 nM |
| COc1cc(NC(=O)N[C@@H](CNC(=O)[C@@H]2CCCN(C(=O)CCC3CCNCC3)C2)C(=O)O)cc(OC)c1 [Compound 26, N-3-(4-Piperidinepropionyl)-R-(-)nipecotyl-[(S)-2-(3,5-dimethoxyanilino)carbonylamino-3-amino]propionic acid.HCl] | 0.3 | – | – |
| O=C(O)C[C@H](NC(=O)[C@@H]1CCCN(C(=O)N2CCC(C3CCNCC3)CC2)C1)c1cccnc1 [Compound 27, N-[(4,4'-Bipiperidin-1-yl-)carbonyl]-R-(-)-nipecotyl-[(S)-3-amino-3-(3-pyridyl)]propionic acid.3HCl] | 0.6 | 100 | – |
| O=C(Nc1ccc2ccccc2c1)N[C@@H](CNC(=O)[C@@H]1CCCN(C(=O)CCC2CCNCC2)C1)C(=O)O [Compound 28, N-3-(4-Piperidinepropionyl)-R-(-)nipecotyl-[(S)-2-(2-naphthylamino)carbonylamino-3-amino]propionic acid.HCl] | 0.2 | 100 | – |
| O=C(NC[C@@H]1NC(=O)N(Cc2ccccc2)C1=O)[C@@H]1CCCN(C(=O)CCC2CCNCC2)C1 [Compound 29, N-3-(4-Piperidinepropionyl)-R-(-)nipecotyl-aminomethyl-5-(S)-(3-N-benzyl)imidazoline-2,4-dione.HCl] | 68 | 100 | – |
| O=C(NCCc1ccccc1)N[C@@H](CNC(=O)[C@@H]1CCCN(C(=O)CCC2CCNCC2)C1)C(=O)O [Compound 30, N-3-(4-Piperidinepropionyl)-R-(-)nipecotyl-[(S)-2-(2-phenethylamino)carbonylamino-3-amino]propionic acid.HCO2 H] | 0.8 | 100 | – |
| Cc1ccc([C@H](CC(=O)O)NC(=O)[C@@H]2CCCN(C(=O)CCC3CCNCC3)C2)cn1 [Compound 31, N-3-(4-Piperidinepropionyl)-R-(-)nipecotyl-[(S)-3-amino-3-(6-methyl-3-pyridyl)]propionic acid.2HCl] | 0.3 | 100 | – |
| O=C(O)C[C@H](NC(=O)[C@@H]1CCCN(C(=O)CCC2CCNCC2)C1)c1cncc(Br)c1 [Compound 32, N-3-(4-Piperidinepropionyl)-R-(-)nipecotyl-[(S)-3-amino-3-(5-bromo-3-pyridyl)]propionic acid.2HCl] | 0.4 | – | – |
| N=CN1CCC(CCC(=O)N2CCC[C@@H](C(=O)N[C@@H](CC(=O)O)c3cccnc3)C2)CC1 [Compound 33, N-3-(4-Formamidinopiperidinepropionyl)-R-(-)nipecotyl-[(S)-3-amino-3-(3-pyridyl)]propionic acid.2HCl] | 0.7 | 100 | IC50 [2, 8]: 300 nM |
| CN(CC(=O)c1ccc(OCC(=O)O)c(OCC(=O)O)c1)C(=O)c1ccc(C(=N)N)cc1 [Ro-438857] | – | – | IC50 [4]: 94 nM |
| Arg-Gly-Asp [Arg-Gly-Asp (RGD)] | – | – | inhibition of fibrinogen binding to GPIIb/IIIa (GPIIb/IIIa [5]): shown to inhibit fibrinogen binding to GPIIb/IIIa |
| HHLGGAKQAGDV [γ-chain peptide region of fibrinogen, γ400-411] | – | – | inhibition of fibrinogen binding to GPIIb/IIIa (GPIIb/IIIa [5]): shown to inhibit fibrinogen binding to GPIIb/IIIa |
